Broadly, the AC50 is the concentration at which the activity in the assay is half-maximal.

Calls of active or inactive are those of the source.

The target of one assay is Melanocortin receptor 4 (Homo sapiens, UniProt P32245). Nature of the assay: MC4R antagonist potency on cAMP, dose response, cell-based, TR-FRET, biased antagonists (AID 602298).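 Also: antagonist potency against agonist-stimulated cAMP production.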 It counts as functional.
Assay [1] is described as follows: microbe, parasite or virus in culture. It counts as functional. To be noted: Mycobacterium tuberculosis.
The nature of assay [2]: nonselective inhibitors of cellular cAMP signaling, dose response, counter-screen for MC4R biased antagonist project, cell-based, TR-FRET cAMP detection (AID 602305).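 Also: U2OS cells stimulated with forskolin near its EC80 as the cAMP inducer; potency is for inhibition of forskolin-stimulated cAMP signaling.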 It counts as functional.
The nature of assay [3]: HEK293T cytotoxicity, dose response, cytotoxicity control for miR-122 modulator project, cell-based, inhibitor set, cherry-pick, set 2 (AID 720697). It counts as functional.
In another assay the test system is INS1. Nature of the assay: beta cell apoptosis inhibitors, cytokine rescue, dose response, luminescence, retest (AID 449756).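 Also: cell death triggered by IL-1 beta plus TNF-alpha plus IFN-gamma mixture; protective hits raise ATP signal compared with cytokine alone wells.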 As to conditions: Rattus norvegicus. It counts as functional, cell-based.
A short description of assay [4]: HEK293T cytotoxicity, dose response, cytotoxicity control for miR-122 modulator project, cell-based, activator set, cherry-pick (AID 720690).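 Also: HEK293T human cells scored for general mammalian cytotoxicity.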 The class given is functional.
In the next assay the target is Protein Wnt-3a (Mus musculus, UniProt P27467). The assay can be described thus: Wnt3a-driven reporter signaling inhibition, dose response, selectivity assay for Gli-SUFU antagonist project, Wnt-LIGHT cells, luminescence (AID 651570).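 Also: Wnt-LIGHT reporter cells stimulated with conditioned medium from Wnt3a-producing cells.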 The class given is functional. As to conditions: read-out: IC50_Mean.
The nature of assay [5]: HepG2 cell cytotoxicity, dose response, cytotoxicity control for Shn3 inhibitor project, CellTiter-Glo, cherry-picked (AID 624134). The class given is functional, cell-based. On the technique in general: ATP-based viability assays read luminescence as a measure of living cells.
Assay [6] can be described thus: Shn3 3'UTR reporter inhibitors, dose response, cell-based, Clone20 osteoblasts, firefly luciferase, cherry-picked (AID 624132).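 Also: firefly luciferase luminescence from reporter carrying the Shn3 3'UTR in osteoblasts.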 The class given is functional.
Assay [7] in a line: cytotoxicity in HEK-293T NF-kB-Luc cells, dose response, cytotoxicity control for B/T-cell NF-kB inhibitor project, cell-based, uHTS hits (AID 489019).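 Also: IC50 reflects cytotoxicity as loss of cell viability.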 The class given is functional.
The nature of assay [8]: control 3'UTR Renilla luciferase suppression, dose response, counter-screen for Shn3 inhibitor project, cell-based, Clone20-Shn3RL, cherry-picked (AID 624133). The class given is functional. In general terms: A counterscreen serves to expose hits that act by an unwanted route or on another target.
Assay [9] can be described thus: inhibitors of clade B AD8 Env fusion, dose response, cell-based, cherry-pick (AID 652062).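 Also: luciferase signal from cell-cell fusion driven by HIV-1 clade B AD8 Env; potency is for inhibitors of fusion seen as a drop in luminescence.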 It counts as functional.
For the next assay, the system named is Jurkat. Nature of the assay: antigen receptor-induced NF-kB inhibitors, dose response, Jurkat, luciferase reporter, luminescence, B- and T-cell (AID 489004).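 Also: NF-kB luciferase reporter Jurkat cells stimulated with PMA plus ionomycin.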 The class given is functional, cell-based. As to conditions: Homo sapiens. A general note: Reporter assays use an easily measured gene product as a stand-in for the process of interest.
Assay [10] addresses T1, COUP transcription factor 2 (Homo sapiens, UniProt P24468).
T1 sequence (P24468 whole entry): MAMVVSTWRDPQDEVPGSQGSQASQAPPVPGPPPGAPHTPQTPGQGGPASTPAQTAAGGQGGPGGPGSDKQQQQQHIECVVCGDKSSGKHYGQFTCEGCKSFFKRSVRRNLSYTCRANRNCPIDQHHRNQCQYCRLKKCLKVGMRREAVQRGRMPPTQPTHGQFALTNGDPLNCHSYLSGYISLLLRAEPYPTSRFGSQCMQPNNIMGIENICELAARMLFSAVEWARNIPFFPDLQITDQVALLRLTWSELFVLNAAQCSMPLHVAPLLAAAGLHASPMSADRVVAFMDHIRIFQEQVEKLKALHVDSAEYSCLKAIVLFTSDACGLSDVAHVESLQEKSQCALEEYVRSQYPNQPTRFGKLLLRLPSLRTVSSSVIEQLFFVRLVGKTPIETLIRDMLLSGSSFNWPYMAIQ
The assay can be described thus: Luminescence-based cell-based high throughput dose response assay to identify inhibitors of COUP-TFII (NR2F2). The class given is functional.

The target in assay [11] is Adenosylmethionine-8-amino-7-oxononanoate aminotransferase (Mycobacterium tuberculosis, UniProt P9WQ81). Nature of the assay: Mycobacterium tuberculosis BioA enzyme inhibitor Measured in Biochemical System Using Plate Reader - 2163-02_Inhibitor_Dose_CherryPick_Activity. The class given is functional, Mycobacterium tuberculosis UT205.
Assay [12] is described as follows: CAL PDZ domain peptide-binding inhibitors, dose response, biochemical, fluorescence polarization, untagged CAL PDZ, cherry-pick, set 2 (AID 602254). The class given is functional.
In assay [13] the target is T2, ATP-dependent translocase ABCB1 (Homo sapiens, UniProt P08183). The assay can be described thus: ABCG2 efflux pump inhibitor potency, dose response, Ig-MXP3 cells, JC-1, flow cytometry, set 2 (AID 504566).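 Also: flow cytometry median green fluorescence of retained JC-1 dye; potency of efflux pump inhibition measured as rising substrate retention.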 It counts as functional. To be noted: read-out: EC50_MICROM_.
The target in assay [14] is T2, ATP-dependent translocase ABCB1. Nature of the assay: ABCB1 efflux inhibitor potency, dose response, Jurkat-DNR cells, JC-1, flow cytometry, set 2 (AID 504569).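 Also: potency of pump inhibitors that raise cellular JC-1 green fluorescence up to the nicardipine level.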 As to conditions: read-out: EC50_MICROM_. It counts as functional.
Assay [15] addresses T3, Voltage-gated N-type calcium channel alpha-1B subunit/Amyloid beta A4 precursor protein-binding family A member 1 (Homo sapiens, UniProt Q00975+Q02410). The class given is protein assay.
The target in assay [16] is T4, Low molecular weight phosphotyrosine protein phosphatase (Homo sapiens, UniProt P24666).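 Also: Dose-response confirmation assay measuring inhibition of LMPTP enzyme activity by fluorescence intensity read-out.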
T4 sequence (P24666 whole entry): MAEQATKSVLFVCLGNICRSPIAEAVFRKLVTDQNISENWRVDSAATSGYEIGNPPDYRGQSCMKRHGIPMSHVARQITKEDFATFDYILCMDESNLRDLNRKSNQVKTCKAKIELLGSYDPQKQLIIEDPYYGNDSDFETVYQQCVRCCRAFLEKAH
The class given is functional. To be noted: read-out: IC50_Mean.

The target of assay [17] is T5, Carboxy-terminal domain RNA polymerase II polypeptide A small phosphatase 1 (Homo sapiens, UniProt Q9GZU7).
T5 sequence (Q9GZU7 whole entry): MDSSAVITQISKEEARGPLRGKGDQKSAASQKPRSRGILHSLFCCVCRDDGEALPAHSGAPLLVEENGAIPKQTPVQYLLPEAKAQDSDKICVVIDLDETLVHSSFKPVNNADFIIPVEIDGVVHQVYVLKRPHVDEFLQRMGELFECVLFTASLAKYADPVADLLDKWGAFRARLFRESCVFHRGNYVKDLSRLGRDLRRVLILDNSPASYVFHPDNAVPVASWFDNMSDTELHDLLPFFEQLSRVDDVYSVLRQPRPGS
Nature of the assay: inhibitors of CTDSP1, concentration-response testing, biochemical assay, absorbance-based, actives from ultra-high-throughput screening (AID 540297). The class given is functional.

Assay [18] addresses T3, Voltage-gated N-type calcium channel alpha-1B subunit/Amyloid beta A4 precursor protein-binding family A member 1. The class given is protein assay. The source holds these as a separate data set.
Assay [19] addresses T6, Tyrosine-protein phosphatase non-receptor type 22 (Homo sapiens, UniProt Q9Y2R2).
T6 sequence (Q9Y2R2 whole entry): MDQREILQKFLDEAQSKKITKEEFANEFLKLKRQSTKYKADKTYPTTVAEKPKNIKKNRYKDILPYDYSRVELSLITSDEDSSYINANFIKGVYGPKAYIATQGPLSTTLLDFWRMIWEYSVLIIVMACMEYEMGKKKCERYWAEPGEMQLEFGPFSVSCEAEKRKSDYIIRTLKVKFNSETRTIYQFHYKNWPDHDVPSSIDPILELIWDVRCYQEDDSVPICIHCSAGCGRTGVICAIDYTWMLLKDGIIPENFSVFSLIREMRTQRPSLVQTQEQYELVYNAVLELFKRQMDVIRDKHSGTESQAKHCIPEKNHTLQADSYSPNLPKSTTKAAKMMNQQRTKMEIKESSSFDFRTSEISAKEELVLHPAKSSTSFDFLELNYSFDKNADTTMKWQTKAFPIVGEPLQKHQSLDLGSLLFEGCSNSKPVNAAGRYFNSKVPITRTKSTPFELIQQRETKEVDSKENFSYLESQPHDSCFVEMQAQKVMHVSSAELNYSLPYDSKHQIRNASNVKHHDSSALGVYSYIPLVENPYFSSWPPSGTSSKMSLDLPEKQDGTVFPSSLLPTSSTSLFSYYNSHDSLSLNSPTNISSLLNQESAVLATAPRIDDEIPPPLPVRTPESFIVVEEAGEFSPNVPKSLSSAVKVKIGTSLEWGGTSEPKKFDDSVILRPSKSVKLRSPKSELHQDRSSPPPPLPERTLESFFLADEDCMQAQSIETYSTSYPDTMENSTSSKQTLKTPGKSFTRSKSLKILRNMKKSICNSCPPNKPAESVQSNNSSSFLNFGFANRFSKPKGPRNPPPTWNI
Nature of the assay: LYP phosphatase inhibition for selectivity, dose response, selectivity assay for LMPTP inhibitor project, biochemical, fluorescence, LYP catalytic domain (AID 652006). It counts as functional. To be noted: read-out: IC50_Mean.

The nature of assay [20]: HEp-2 cell cytotoxicity, dose response, cytotoxicity control for RSV inhibitor project, HTS (AID 2410). The class given is functional. To be noted: human respiratory syncytial virus.
A further assay deals with Interleukin-8 (Homo sapiens, UniProt P10145). The assay can be described thus: Dose Response confirmation of uHTS small molecule hits for cystic fibrosis induced NFkb Inhibitors in a PAF-induced IL8 counterscreen. It counts as functional. As to conditions: read-out: IC50_Mean.
Sequence of Interleukin-8 (P10145 whole entry): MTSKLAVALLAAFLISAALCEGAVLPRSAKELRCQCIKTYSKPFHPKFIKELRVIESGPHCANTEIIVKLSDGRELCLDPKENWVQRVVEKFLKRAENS

T2 sequence (P08183 whole entry): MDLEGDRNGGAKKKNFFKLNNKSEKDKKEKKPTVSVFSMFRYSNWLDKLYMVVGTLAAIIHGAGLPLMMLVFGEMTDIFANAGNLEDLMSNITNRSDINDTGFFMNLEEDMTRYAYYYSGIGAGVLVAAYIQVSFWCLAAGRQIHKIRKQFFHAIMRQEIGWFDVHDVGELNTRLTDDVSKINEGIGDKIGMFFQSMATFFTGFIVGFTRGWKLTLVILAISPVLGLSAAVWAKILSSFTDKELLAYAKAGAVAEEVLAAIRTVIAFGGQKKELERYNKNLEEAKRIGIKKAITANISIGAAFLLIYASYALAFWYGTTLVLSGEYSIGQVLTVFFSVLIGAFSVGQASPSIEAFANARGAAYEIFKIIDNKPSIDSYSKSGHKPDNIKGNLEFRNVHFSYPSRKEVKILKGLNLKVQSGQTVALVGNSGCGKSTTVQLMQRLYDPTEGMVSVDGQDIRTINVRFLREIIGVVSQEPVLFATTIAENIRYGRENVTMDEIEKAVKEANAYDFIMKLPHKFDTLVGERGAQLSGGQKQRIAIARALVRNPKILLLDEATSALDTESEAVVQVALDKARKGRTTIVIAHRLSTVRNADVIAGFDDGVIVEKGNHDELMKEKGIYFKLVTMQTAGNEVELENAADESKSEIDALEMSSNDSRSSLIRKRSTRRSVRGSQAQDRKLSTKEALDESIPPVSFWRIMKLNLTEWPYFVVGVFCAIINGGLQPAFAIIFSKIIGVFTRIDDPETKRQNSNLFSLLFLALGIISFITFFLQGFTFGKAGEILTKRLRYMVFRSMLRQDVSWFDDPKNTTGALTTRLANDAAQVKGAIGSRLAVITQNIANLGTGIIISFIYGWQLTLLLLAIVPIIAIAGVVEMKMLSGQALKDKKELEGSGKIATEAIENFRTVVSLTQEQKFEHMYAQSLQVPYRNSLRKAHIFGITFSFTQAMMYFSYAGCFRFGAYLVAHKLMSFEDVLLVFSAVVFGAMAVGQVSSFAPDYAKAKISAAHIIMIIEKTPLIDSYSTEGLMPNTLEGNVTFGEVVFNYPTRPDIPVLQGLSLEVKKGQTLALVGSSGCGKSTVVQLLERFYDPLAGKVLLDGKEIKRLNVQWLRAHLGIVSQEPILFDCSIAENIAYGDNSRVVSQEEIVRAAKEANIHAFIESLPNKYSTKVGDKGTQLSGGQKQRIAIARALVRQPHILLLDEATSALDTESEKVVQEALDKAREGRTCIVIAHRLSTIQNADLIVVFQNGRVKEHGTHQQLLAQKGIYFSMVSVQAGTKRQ
T3 sequence (Q00975 whole entry): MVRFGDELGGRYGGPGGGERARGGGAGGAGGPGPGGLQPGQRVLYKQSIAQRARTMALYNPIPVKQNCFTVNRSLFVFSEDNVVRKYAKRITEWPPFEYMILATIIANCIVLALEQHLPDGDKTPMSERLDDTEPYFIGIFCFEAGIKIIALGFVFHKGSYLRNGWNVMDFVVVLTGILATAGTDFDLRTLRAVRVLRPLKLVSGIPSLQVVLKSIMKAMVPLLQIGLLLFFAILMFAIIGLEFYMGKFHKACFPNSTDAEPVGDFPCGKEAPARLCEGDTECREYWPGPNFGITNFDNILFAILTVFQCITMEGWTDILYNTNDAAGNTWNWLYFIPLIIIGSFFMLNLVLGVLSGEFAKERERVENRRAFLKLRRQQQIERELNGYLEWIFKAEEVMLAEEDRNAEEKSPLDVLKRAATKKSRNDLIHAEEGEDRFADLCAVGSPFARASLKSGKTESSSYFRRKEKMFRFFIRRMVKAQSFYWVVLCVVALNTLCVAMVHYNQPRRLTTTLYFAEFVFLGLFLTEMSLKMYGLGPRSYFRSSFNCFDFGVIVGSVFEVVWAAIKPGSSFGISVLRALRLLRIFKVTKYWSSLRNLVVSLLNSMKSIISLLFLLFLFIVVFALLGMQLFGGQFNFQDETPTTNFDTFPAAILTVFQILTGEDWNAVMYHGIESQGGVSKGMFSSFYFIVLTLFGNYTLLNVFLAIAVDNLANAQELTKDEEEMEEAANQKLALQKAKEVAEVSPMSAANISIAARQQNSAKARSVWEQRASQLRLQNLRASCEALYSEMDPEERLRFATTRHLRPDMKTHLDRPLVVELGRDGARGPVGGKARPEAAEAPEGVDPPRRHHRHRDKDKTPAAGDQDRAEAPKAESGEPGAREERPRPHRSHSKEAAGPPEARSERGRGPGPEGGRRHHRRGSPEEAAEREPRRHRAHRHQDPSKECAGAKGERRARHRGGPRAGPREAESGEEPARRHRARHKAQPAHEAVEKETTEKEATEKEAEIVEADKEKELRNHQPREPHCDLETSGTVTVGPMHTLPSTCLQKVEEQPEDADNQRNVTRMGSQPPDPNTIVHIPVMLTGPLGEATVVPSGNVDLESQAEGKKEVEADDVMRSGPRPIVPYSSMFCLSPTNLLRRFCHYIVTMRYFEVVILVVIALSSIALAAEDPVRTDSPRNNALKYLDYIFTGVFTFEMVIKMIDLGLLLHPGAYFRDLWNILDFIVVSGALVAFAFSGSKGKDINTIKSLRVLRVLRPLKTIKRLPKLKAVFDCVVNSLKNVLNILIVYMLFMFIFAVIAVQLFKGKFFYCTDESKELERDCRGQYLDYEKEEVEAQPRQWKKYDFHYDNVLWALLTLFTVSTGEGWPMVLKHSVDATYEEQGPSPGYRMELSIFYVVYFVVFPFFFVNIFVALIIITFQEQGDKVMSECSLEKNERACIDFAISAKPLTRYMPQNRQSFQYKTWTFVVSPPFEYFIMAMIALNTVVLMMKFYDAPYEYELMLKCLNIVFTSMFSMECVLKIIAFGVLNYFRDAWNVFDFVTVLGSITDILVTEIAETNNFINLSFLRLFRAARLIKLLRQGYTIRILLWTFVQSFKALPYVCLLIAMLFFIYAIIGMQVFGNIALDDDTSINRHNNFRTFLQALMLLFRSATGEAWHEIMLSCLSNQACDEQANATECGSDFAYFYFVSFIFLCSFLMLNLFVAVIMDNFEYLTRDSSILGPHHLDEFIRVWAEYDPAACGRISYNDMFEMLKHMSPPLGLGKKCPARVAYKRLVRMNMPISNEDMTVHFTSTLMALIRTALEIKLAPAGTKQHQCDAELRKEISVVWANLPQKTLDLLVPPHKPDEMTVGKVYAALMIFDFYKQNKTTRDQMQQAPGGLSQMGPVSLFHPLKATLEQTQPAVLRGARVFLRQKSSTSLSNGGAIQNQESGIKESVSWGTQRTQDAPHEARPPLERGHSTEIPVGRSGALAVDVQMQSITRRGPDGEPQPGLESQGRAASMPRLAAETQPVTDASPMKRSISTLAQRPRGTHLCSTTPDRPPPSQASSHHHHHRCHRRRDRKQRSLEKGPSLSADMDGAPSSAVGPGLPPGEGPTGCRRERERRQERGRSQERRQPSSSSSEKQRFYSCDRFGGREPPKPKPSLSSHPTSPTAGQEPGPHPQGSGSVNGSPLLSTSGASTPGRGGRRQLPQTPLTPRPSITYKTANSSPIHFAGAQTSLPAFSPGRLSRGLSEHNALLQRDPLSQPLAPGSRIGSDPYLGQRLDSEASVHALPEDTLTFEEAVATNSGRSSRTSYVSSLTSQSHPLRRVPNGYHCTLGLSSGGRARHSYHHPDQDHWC
T3 sequence (Q02410 whole entry): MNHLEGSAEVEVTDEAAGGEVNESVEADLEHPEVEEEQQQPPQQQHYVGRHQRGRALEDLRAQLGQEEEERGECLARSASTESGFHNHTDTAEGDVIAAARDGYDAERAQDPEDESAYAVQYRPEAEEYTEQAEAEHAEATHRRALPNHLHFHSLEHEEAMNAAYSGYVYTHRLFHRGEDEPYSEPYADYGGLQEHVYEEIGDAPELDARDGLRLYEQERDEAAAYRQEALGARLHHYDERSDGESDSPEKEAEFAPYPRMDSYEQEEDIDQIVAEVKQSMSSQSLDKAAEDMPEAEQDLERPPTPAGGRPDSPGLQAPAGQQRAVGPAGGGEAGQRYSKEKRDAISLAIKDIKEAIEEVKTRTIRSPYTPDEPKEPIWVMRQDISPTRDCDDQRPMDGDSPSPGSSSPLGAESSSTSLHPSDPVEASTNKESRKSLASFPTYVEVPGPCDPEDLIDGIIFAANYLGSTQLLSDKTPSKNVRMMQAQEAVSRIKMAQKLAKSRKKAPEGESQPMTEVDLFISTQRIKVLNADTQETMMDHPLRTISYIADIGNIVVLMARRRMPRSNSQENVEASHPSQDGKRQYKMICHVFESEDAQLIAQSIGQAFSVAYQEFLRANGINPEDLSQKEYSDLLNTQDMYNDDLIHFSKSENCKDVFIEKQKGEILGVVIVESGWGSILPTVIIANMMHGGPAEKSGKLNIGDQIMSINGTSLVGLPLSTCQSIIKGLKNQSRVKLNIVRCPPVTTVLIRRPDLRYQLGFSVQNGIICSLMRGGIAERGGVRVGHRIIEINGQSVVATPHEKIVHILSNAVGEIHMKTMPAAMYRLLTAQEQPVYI
Sequence of Protein Wnt-3a (P27467 whole entry): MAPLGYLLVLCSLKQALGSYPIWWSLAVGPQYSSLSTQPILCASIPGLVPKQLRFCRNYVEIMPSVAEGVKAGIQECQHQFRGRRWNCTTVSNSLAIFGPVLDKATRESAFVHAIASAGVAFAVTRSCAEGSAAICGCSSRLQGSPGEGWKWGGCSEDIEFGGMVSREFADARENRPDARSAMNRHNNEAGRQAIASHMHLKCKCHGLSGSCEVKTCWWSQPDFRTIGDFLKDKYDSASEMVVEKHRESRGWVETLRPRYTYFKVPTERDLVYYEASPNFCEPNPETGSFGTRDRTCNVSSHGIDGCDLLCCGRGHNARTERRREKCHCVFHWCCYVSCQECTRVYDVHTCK

Regarding `COc1cc2c(cc1NC(=O)CN1C(=O)NC3(CCc4ccccc43)C1=O)oc1ccccc12` (stereo unspecified), the IC50 (on Melanocortin receptor 4; in assay [2]) was > 64.6 µM (inactive) in each case. Besides, the CC50 in assay [1] is 23.6 µM (active).
`Cc1ccc(OCCN2CCN(c3ncnc4sc(C)c(C)c34)CC2)cc1`: the half-maximal activity concentration (AC50) in assay [3] was 13.6 µM (active); with INS1, 2.36 µM (active); in [4], 33.6 µM (active); in assay [5], 1.5 µM (active); in [6], 754 nM (active); in [8], 2.05 µM (active). In addition, the AC50 in assay [9] was 1.78 µM (active). In addition, the CC50 in [1] was > 40 µM (active). The IC50 at Protein Wnt-3a was 282 nM (active); in [7] it was > 80 µM (inactive); in the assay on Jurkat it was > 80 µM (inactive); in assay [10], 4.98 µM (active).
On to `Cc1cccc(C2c3[nH]c4ccccc4c3CCN2C(=O)CN2CCOC2=O)n1` (stereo unspecified), for which the AC50 in assay [11] was 7.05 µM (active).
For `CC(C)(C)c1ccc(/C=N/N2CCN(c3ccccn3)CC2)cc1`, in assay [12], the half-maximal activity concentration (AC50) was 91.5 µM (active).
On to `COc1ccccc1C(=O)N1CCN(c2cc(-c3ccccc3)nc3cc(-c4cccc(Cl)c4)nn23)CC1`, for which the EC50 in assay [13] was 2.97 µM (active); in assay [14] it was 4.13 µM (active).
For `NS(=O)(=O)c1ccc(CNC(=O)Cc2cccs2)cc1`, the IC50 is > 50 µM (inactive) in assay [15]; 20.7 µM (inactive) in assay [16]; 4.18 µM (active) in assay [17]; 3.86 µM (active) in assay [18]; 56.1 µM (inactive) in assay [19].
Regarding `CC(C)C[C@H](CO)Nc1nc(Nc2cccc(Cl)c2)c2ncn(C(C)C)c2n1`, the CC50 in [20] was 44.4 µM (active). At Interleukin-8, the IC50 was 5.97 µM (active).

Values taken from ChEMBL document CHEMBL1201862, “PubChem BioAssay data set” (2004).
